In patent US20090030207A1, “Polymorphs of Dolasetron base and process for preparation thereof” (priority 2007, published 2009):

Tests used:
[1] = Hygroscopicity: water content after 1 week storage at defined relative humidity; format: physicochemical; conditions: for WATER CONTENT: 1 week, 25 ± 2° C.; for INITIAL water content: before storage
From the text: Hygroscopicity Table and Stability Measurements of Form G and J

[2] = format: physicochemical; conditions: for CRYSTAL FORM: 100% relative humidity, 1 week, 25 ± 2° C.
From the text: ARL X-ray powder diffractometer model X'TRA-030, Peltier detector, round standard aluminum sample holder with round zero background quartz plate was used. Scanning parameters: Range: 2-40 deg. 2θ, continuous Scan, Rate: 3 deg./min. The accuracy of peak positions is defined as +/−0.2 degrees due to experimental differences like instrumentations, sample preparations etc. Hygroscopicity Table and Stability Measurements of Form G and J

WATER CONTENT ([1]; 40% relative humidity) [%]	WATER CONTENT ([1]; 60% relative humidity) [%]	WATER CONTENT ([1]; 80% relative humidity) [%]	WATER CONTENT ([1]; 100% relative humidity) [%]	INITIAL water content [1]	crystalline stability (conversion to another polymorph upon storage) [2]	CRYSTAL FORM [2]	SMILES
<0.1	<0.1	<0.1	4.1	INITIAL water content: 0.1%	stable polymorphic form	B >> G	O=C(O[C@@H]1C[C@@H]2C[C@H]3C[C@H](C1)N2CC3=O)c1c[nH]c2ccccc12 [Form G, Dolasetron base]
<0.1	<0.1	0.2	5.5	INITIAL water content: <0.1%	stable polymorphic form	B >> J	O=C(O[C@@H]1C[C@@H]2C[C@H]3C[C@H](C1)N2CC3=O)c1c[nH]c2ccccc12 [Form J, Dolasetron base]
